Source: US9475805B2, “Tricyclic compound” (Kyowa Hakko Kirin Co., Ltd., priority 2008, dated 2016)
pEC50: −log10 of the molar value.

biological target: T1, PPAR γ (Homo sapiens, UniProt P37231); test: PPAR γ activation action based on transactivation assay of PPAR γ by transient gene transfer (GAL4-PPAR γ chimeric receptor, luciferase reporter, HEK293EBNA cells); format: cell-based; details: concentration showing 50% of the compound's own efficacy (maximum activity rate relative to pioglitazone 10 μmol/L = 100%), 24 hr
T1 construct: expressed in transfected cells; host or cells: HEK293EBNA
T1 sequence (P37231 174-475 isoform P37231-2): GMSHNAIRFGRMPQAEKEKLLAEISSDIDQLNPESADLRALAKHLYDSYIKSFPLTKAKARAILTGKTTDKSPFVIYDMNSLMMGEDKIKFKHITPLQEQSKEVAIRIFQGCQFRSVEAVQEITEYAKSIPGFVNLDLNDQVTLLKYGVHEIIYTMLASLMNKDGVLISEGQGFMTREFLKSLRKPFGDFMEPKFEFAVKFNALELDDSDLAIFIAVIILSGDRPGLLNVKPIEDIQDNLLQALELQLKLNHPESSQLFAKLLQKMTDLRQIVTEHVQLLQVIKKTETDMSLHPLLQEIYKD
Procedure: The agonist activity of compound (I) to PPAR γ was determined by a transactivation assay method using a chimeric nuclear receptor of a DNA binding region of a yeast transcription factor GAL4 and a PPAR γ ligand binding region. Specifically, the PPAR γ agonist activity of compound (I) was evaluated by the following method based on the method of Lehmann et al. (J Biol Chem., 1995, vol. 270, page 12953).
HEK293EBNA cells cultured in Dulbecco's Modified Eagle medium (Invitrogen) containing 10 v/v % fetal calf serum (Invitrogen) were used. 30 mL of the above-mentioned cells (density: 1×10^5 cells/mL) were inoculated in a […] (Iwaki Glass), and cultured overnight. Using SuperFect Transfection Reagent (QIAGEN), a plasmid expressing a GAL4-PPAR γ chimeric nuclear receptor fusing 174-475 amino acids, which are human PPAR γ ligand binding region, and 1-147 amino acids, which are GAL4 DNA binding region, and a reporter plasmid expressing a GAL4 responsive luciferase were transiently introduced into the cells at a proportion of 4:1. After 5 hr from transfection, the cells were detached from the culture dish, and the detached cells (density: 2×10^4 cells/mL) were inoculated by 100 μL in each well of a 96 well white plate (SUMITOMO BAKELITE), and cultured overnight. The medium was removed, compound (I) diluted in various concentrations with serum-free Dulbecco's Modified Eagle medium was added by 100 μL, and the mixture was reacted under a 5% carbon dioxide gas stream (5% CO2) at 37° C. for 24 hr. On the other hand, as a positive control, 10 μmol/L of pioglitazone (100 μL) was added, and the mixture was reacted under a 5% carbon dioxide gas stream (5% CO2) at 37° C. for 24 hr. As a substrate of luciferase, 100 μL of Steady-Glo (Promega) was added to each well and the mixture was thoroughly stirred. Immediately thereafter, the chemical luminescence due to luciferase was measured using TopCount NTX (Packard).
The agonist activity (activity rate (%)) of compound (I) to PPAR γ was calculated according to the following formula, as a relative activity when the agonist activity on addition of pioglitazone (10 μmol/L) was 100%.

How did the pEC50 turn out when `CCc1nc2c(C)cc(-c3ccccc3)cc2n1Cc1ccc2c(c1)CCc1ccccc1/C2=C\C#N` [Compound 50, (E)-[2-(2-Ethyl-4-methyl-6-phenylbenzimidazol-1-yl)methyl-10,11-dihydro-5H-dibenzo[a,d]cyclohepten-5-ylidene]acetonitrile] was run?
The pEC50 was 6.45.

With `Cc1cc(-c2ccccc2)cc2c1nc(C)n2Cc1ccc2c(c1)CCc1ccccc1/C2=C\c1nnn[nH]1` [Compound 54, (E)-2-(2,4-Methyl-6-phenylbenzimidazol-1-yl)methyl-5-(1H-tetrazol-5-yl)methylene-10,11-dihydro-5H-dibenzo[a,d]cycloheptene] as the molecule, how does the pEC50 read?
The pEC50 was 7.27.

With `Cc1cc(-c2ccccc2)cc2c1nc(C)n2Cc1ccc2c(c1)CCc1ccccc1/C2=C\C(=O)O` [Compound 55, (E)-[2-(2,4-Dimethyl-6-phenylbenzimidazol-1-yl)methyl-10,11-dihydro-5H-dibenzo[a,d]cyclohepten-5-ylidene]acetic acid] as the molecule, how does the pEC50 read?
The pEC50 was 7.41.

With `CCCc1nc2c(C)cc(-c3cccs3)cc2n1Cc1ccc2c(c1)CCc1ccccc1/C2=C\c1nnn[nH]1` [Compound 67, (E)-2-[4-Methyl-2-propyl-6-(2-thienyl)benzimidazol-1-yl]methyl-5-(1H-tetrazol-5-yl)methylene-10,11-dihydro-5H-dibenzo[a,d]cycloheptene] as the molecule, how does the pEC50 read?
Its pEC50 is 6.81.

How did the pEC50 turn out when `CCCc1nc2c(C)cc(-c3nnco3)cc2n1Cc1ccc2c(c1)CCc1ccccc1/C2=C\c1nnn[nH]1` [Compound 70, (E)-2-[4-Methyl-6-(1,3,4-oxadiazol-2-yl)-2-propylbenzimidazol-1-yl]methyl-5-(1H-tetrazol-5-yl)methylene-10,11-dihydro-5H-dibenzo[a,d]cycloheptene] was run?
The pEC50 was 6.81.

With `CCc1nc2c(C)cc(C)nc2n1Cc1ccc2c(c1)OCc1ccccc1/C2=C(\C)c1noc(=O)[nH]1` [Compound 76, (Z)-3-(2-Ethyl-5,7-dimethyl-3H-imidazo[4,5-b]pyridin-3-yl)methyl-11-[1-(5-oxo-4,5-dihydro-1,2,4-oxadiazol-3-yl)ethylidene]-6,11-dihydrodibenzo[b,e]oxepine] as the molecule, how does the pEC50 read?
The pEC50 was 6.48.

`CCCc1nc2c(C)cccc2n1C(C)c1ccc2c(c1)CCc1ccccc1/C2=C\c1noc(=O)[nH]1` (centres unmarked) [Compound 85, (E)-2-[1-(2-Propyl-4-methylbenzimidazol-1-yl)ethyl]-5-(5-oxo-4,5-dihydro-1,2,4-oxadiazol-3-yl)methylene-10,11-dihydro-5H-dibenzo[a,d]cycloheptene] was tested. Which pEC50 did it give?
Its pEC50 is 7.57.

`CCc1nc2c(Cl)cccc2n1C(C)c1ccc2c(c1)CCc1ccccc1/C2=C\c1noc(=O)[nH]1` (centres unmarked) [Compound 87, (E)-2-[1-(4-Chloro-2-ethylbenzimidazol-1-yl)ethyl]-5-(5-oxo-4,5-dihydro-1,2,4-oxadiazol-3-yl)methylene-10,11-dihydro-5H-dibenzo[a,d]cycloheptene] was tested. Which pEC50 did it give?
Its pEC50 is 7.22.

`CCCc1nc2c(C)cc(-c3ncco3)cc2n1Cc1ccc2c(c1)CCc1ccccc1/C2=C\C(=O)N(C)CC(=O)O` [Compound 95, (E)-2-[N-Methyl 2-({2-[4-methyl-6-(1,3-oxazol-2-yl)-2-propylbenzimidazol-1-yl]methyl-10,11-dihydro-5H-dibenzo[a,d]cyclohepten-5-ylidene}acetamido)]acetic acid] was tested. Which pEC50 did it give?
Its pEC50 is 7.51.

With `CCCc1nc2c(C(C)(C)O)cccc2n1Cc1ccc2c(c1)COc1ccccc1/C2=C(\C)c1noc(=O)[nH]1` [Compound 96, (E)-8-[(4-Hydroxypropan-2-yl)-2-propylbenzimidazol-1-yl]methyl-11-[1-(5-oxo-4,5-dihydro-1,2,4-oxadiazol-3-yl)ethylidene]-6,11-dihydrodibenzo[b,e]oxepine] as the molecule, how does the pEC50 read?
Its pEC50 is 7.89.

`CCCc1nc2c(C(N)=O)cccc2n1Cc1ccc2c(c1)COc1ccccc1/C2=C(\C)c1noc(=O)[nH]1` [Compound 100, (E)-1-{11-[1-(5-Oxo-4,5-dihydro-1,2,4-oxadiazol-3-yl)ethylidene]-6,11-dihydrodibenzo[b,e]oxepin-8-yl}methyl-2-propylbenzimidazole-4-carboxamide] was tested. Which pEC50 did it give?
The pEC50 was 7.70.

With `CCC/C(=C1/c2ccc(Cn3c(CCC)nc4ccccc43)cc2COc2ccccc21)c1noc(=O)[nH]1` [Compound 115, (E)-11-[1-(5-Oxo-4,5-dihydro-1,2,4-oxadiazol-3-yl)butylidene]-8-(2-propylbenzimidazol-1-yl)methyl-6,11-dihydrodibenzo[b,e]oxepine] as the molecule, how does the pEC50 read?
Its pEC50 is 7.44.

With `CCCc1nc2ccccc2n1Cc1ccc2c(c1)COc1ccc(F)cc1/C2=C(\C)c1noc(=O)[nH]1` [Compound 116, (E)-2-Fluoro-8-(2-propylbenzimidazol-1-yl)methyl-11-[1-(5-oxo-4,5-dihydro-1,2,4-oxadiazol-3-yl)ethylidene]-6,11-dihydrodibenzo[b,e]oxepine] as the molecule, how does the pEC50 read?
Its pEC50 is 7.92.

`C/C(=C1\c2ccccc2OCc2nc(Cn3c(C4CC4)nc4c(Cl)ccnc43)ccc21)c1noc(=O)[nH]1` [Compound 119, (E)-2-(7-Chloro-2-cyclopropyl-3H-imidazo[4,5-b]pyridin-3-yl)methyl-5-[1-(5-oxo-4,5-dihydro-1,2,4-oxadiazol-3-yl)ethylidene]-5,11-dihydrobenzooxepino[3,4-b]pyridine] was tested. Which pEC50 did it give?
The pEC50 was 6.50.
